Entries after “also recorded” stand apart in the source; their conditions may differ.
Key:
ARNO (Sec7PH construct) = biological target: T1, ARNO (Sec7PH construct) (Homo sapiens, UniProt Q99418); assay: Nucleotide exchange kinetics on liposomes, activation of myristoylated Arf1; format: biochemical; settings: 50 μM
T1 construct: BIG1^DcbHusSec7 (2-888) and ARNO^Sec7PH (50-399); made in house
T1 sequence (Q99418 50-399 isoform Q99418-2): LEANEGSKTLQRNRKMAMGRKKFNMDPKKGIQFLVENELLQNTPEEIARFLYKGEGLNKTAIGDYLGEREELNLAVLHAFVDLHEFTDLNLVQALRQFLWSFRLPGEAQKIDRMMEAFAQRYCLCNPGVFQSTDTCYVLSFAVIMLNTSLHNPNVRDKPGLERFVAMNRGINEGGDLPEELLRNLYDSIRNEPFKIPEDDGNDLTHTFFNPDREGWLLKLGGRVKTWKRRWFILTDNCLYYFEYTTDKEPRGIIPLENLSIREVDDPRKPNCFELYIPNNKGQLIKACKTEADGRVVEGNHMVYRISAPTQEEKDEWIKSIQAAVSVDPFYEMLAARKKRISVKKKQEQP

[1] = biological target: T2, BRAG2 binding to PIP2-containing liposomes (Homo sapiens, UniProt Q6DN90); assay: Liposome flotation assay
T2 construct: human BRAG2^Sec7 (390-594) and BRAG2^Sec7PH (390-811); made in house
T2 sequence (Q6DN90 512-933): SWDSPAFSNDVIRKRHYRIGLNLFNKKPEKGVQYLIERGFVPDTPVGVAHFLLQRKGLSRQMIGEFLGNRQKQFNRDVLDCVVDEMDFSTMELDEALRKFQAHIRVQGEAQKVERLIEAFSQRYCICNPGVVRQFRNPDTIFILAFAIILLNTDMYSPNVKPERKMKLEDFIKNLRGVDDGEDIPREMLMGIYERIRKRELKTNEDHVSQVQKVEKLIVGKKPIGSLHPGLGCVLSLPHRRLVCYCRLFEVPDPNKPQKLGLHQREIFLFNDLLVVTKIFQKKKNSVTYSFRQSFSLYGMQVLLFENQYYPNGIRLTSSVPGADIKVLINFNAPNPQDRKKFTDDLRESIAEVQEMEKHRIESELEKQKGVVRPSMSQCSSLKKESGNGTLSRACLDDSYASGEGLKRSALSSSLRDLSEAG
Method: FIG. 4. Bragsin is a non-competitive inhibitor of protein-membrane interactions • a. Bragsin1 (in violet) overlaps with the canonical phosphoinositide-binding site of the PH domain of BRAG2. IP3 (in red) is from the GRP1-IP3 complex (DiNitto, J. P. et al. Structural basis and mechanism of autoregulation in 3-phosphoinositide-dependent Grp1 family Arf GTPase exchange factors. Mol Cell 28, 569-83 (2007)). The position of the membrane is indicated by an arrow. • b. […] Binding was measured by liposome flotation. U: bottom fraction, containing unbound proteins; B: top fraction, containing liposome-bound proteins. […] Quantification is shown below. • c. Inhibition of BRAG2 by Bragsin2 is stronger in the presence of liposomes that contain PIP2 lipids. Kinetics were measured as in FIG. 2b.
Bragsin may partially overlap with a lipid bound at this position was predicted by comparison of the PH domain of a cytohesin ArfGEF with a phosphoinositide headgroup bound to the canonical lipid-binding site (DiNitto, J. P. et al. Mol Cell 28, 569-83 (2007))(FIG. 4a). Bragsin inhibition could act by blocking the interaction of BRAG2 with membranes. […] Alternatively, Bragsin may bind at the interface between the PH domain and the membrane if inhibition is sensitive to the lipid composition of the membrane. […]

| SMILES | Effect on ArfGEF activity on liposomes (ARNO (Sec7PH construct)) | Displacement of BRAG2 from PIP2-containing liposomes [1] |
| --- | --- | --- |
| Cc1ccc2oc(C(F)(F)F)cc(=O)c2c1[N+](=O)[O-] [Bragsin1, 6-methyl-5-nitro-2-(trifluoromethyl)-4H-chromen-4-one] | no effect |  |
| COc1ccc2oc(C(F)(F)F)cc(=O)c2c1[N+](=O)[O-] [Bragsin2, 6-methoxy-5-nitro-2-(trifluoromethyl)-4H-chromen-4-one] |  | did not displace; also recorded: does not impair binding |

Reference: patent publication US12152012B2, “BRAG2 inhibitors and applications thereof” (CENTRE NATIONAL DE LA RECHERCHE SCIENTIFIQUE, priority 2018, dated 2024)
